Laboratory results as given in publication PMC12648864 (Biology of Sex Differences, 2025).
Where “and” joins values, the source holds several entries; their conditions need not be identical. Equal entries are not always repeated. Where two headings read alike, the source gives them in different places.

System: plasma metabolites
Type: in vivo, rat
Experimental: Male and female SD rats were divided into experimental and control groups. Each group contained 10 male and 10 female rats. […] Blood was collected from orbital vein into sodium heparin-coated centrifugal tubes pre-chilled at 4 ℃, at 30 min, 2 h, and 12 h post-administration respectively. Plasma was separated by gentle inversion, immediately quenched in liquid nitrogen, and centrifuged at 1500 g for 10 min at 4 ℃. The prepared plasma was stored at − 80 ℃ until LC-MS/MS analysis.
The stored plasma samples were thawed at 4 °C, and 100 µL of each sample was transferred to a centrifuge tube. Proteins were precipitated using 1 mL of methanol/acetonitrile/water solution (2:2:1, v: v:v) at 4 °C. After vortex mixing, the sample mixture was sonicated for 30 min (ice was used to maintain the low-temperature conditions). The sonicated mixture was allowed to stand for 10 min at […], then centrifuged at 14,000 g for 20 min at 4 °C. The resulting supernatant was collected and dried under vacuum. For instrumental analysis, the dried supernatant was reconstituted in 100 µL of aqueous acetonitrile solution, vortexed, then centrifuged at 14,000 g for 15 min at 4 °C. To ensure instrument stability and data reliability, quality control samples were prepared and analyzed using random sampling.
Chromatographic conditions: separation was performed in a Waters Acquity UPLC BEH Amide column (1.7 μm, 2.1 × 100 mm). The column temperature was 25 ℃ and flow rate was 0.5 mL/min. The injection volume was 2 µL, with the mobile phases consisting of A: water + 25 mM ammonium acetate + 25 mM ammonia, and B: acetonitrile. The gradient elution program was as follows: 0–0.5 min, 95% B; 0.5–7 min, 95%−65% B; 7–8 min, 65%−40% B; 8–9 min, 40% B; 9–9.1 min, 40%−95%B; 9.1–12 min, 95%B.
MS conditions: Detection was carried out using electrospray ionization in both positive and negative ion modes. The following parameters were used: spray voltage, ± 5500 V; ionization temperature, 600 ℃; nebulization air pressure, 60 psi; auxiliary air pressure, 60 psi; air curtain air pressure, 30 psi; time-of-flight MS scanning range (m/z), 60–1000 Da; product ion scanning range, 25–1000 Da. The secondary mass spectra were acquired using information-dependent acquisition in high-resolution mode. The cone bore voltage was ± 60 V (positive and negative modes) and collision energy was 35 ± 15 eV.
Orthogonal partial least squares-discriminant analysis (OPLS-DA) were computed for control female and male rats. […] Differential metabolites were identified using stringent criteria: variable importance in projection (VIP) scores > 1 and statistically significant from t-test.
OPLS-DA scores were calculated for the control group and experimental male rats. […] Differential metabolites were identified using stringent selection criteria: VIP scores > 1.0 and P < 0.05, as derived from the OPLS-DA model.
We performed pairwise comparisons of metabolites between male and female rats in the experimental and control groups. […] We performed KEGG enrichment analysis on metabolites that differed between male and female rats in the experimental group (Fig. 6G-I).

[1] = female rats, 2 hour, test group (TF5, strychnine) vs control group (BF5), plasma metabolite
[2] = female rats, 30 minutes, test group (TF3, strychnine) vs control group (BF3), plasma metabolite
[3] = male rats, test (TM3) vs control (BM3), 30 minutes, plasma
[4] = male rats, test (TM5) vs control (BM5), 2 hours, plasma
[5] = female rats, 12 hour, test group (TF8, strychnine) vs control group (BF8), plasma metabolite
[6] = male rats, test (TM8) vs control (BM8), 12 hours, plasma

Compound	Fold change [2]	Fold change [5]	Fold change [6]	further results
NC(N)=O [Urea]	–	–	–	Fold change [1]: 1.116
CCCCCCCC/C=C\CCCCCCCC(=O)OC[C@H](COP(=O)([O-])OCC[N+](C)(C)C)OC(=O)CCCCCCC/C=C\CCCCCCCC	0.7409	–	–	Fold change [3]: 1.344
CCCCCCCCCCCCCCCC(=O)OC[C@@H](O)COP(=O)([O-])OCC[N+](C)(C)C [1-Palmitoyllysophosphatidylcholine]	–	–	–	Fold change [4]: 1.155
CCCCCCCCCCCCCCCCSC[C@H](COP(=O)(O)OCC[N+](C)(C)C)NC(=O)CCCCCCCCCCCCCCC [Thioetheramide-PC]	–	1.1574	0.7991	–
CSC[C@H]1O[C@@H](n2cnc3c(N)ncnc32)[C@H](O)[C@@H]1O [S-Methyl-5'-thioadenosine]	–	–	0.6708	–
CCCC[C@H](N)C(=O)O [L-Norleucine]	0.6394	1.298	0.6711	Fold change [1]: 1.28
CCCCCCCC/C=C\CCCCCCCC(=O)O[C@H](COC(=O)CCCCCCCCCCCCCCCCC)COP(=O)([O-])OCC[N+](C)(C)C	–	–	–	Fold change [3]: 0.7683
CCCCCCCCCCCCCCC[C@@H](O)[C@@H](N)CO [Sphinganine]	1.985	–	–	–
C[n+]1cccc(C(N)=O)c1 [1-Methylnicotinamide]	–	–	–	Fold change [4]: 1.347
CCCCCCCCCCCCC/C=C/[C@@H](O)[C@H](CO)NC(=O)CCCCCCCCCCCCCCC [N-Palmitoylsphingosine]	–	–	1.476	–
O=C1CCCCCN1 [epsilon-Caprolactam]	1.263	0.793	–	Fold change [4]: 0.6921
CC(=O)OC[C@H](N)C(=O)O [O-Acetyl-L-serine]	–	–	–	Fold change [3]: 0.6094
CN(C)C(N)=NCCC[C@H](N)C(=O)O [NG,NG-dimethyl-L-arginine(ADMA)]	–	–	–	Fold change [3]: 0.5058
O=C(O)[C@H]1CCCCN1 [D-Pipecolinic acid]	2.231	–	–	Fold change [1]: 1.817
CCCCC/C=C\C/C=C\CCCCCCCC(=O)OCC(O)CO (racemic) [MG(18:2(9Z,12Z)/0:0/0:0)[rac]]	–	–	–	Fold change [3]: 0.8489
COc1ccc(-c2cc(=O)c3c(OC)c(OC)c(OC)c(OC)c3o2)cc1 [Tangeritin]	–	9.489	0.02313	Fold change [1]: 3.045
CC(C)CCC[C@@H](C)[C@H]1CC[C@H]2C3=CC[C@H]4C[C@@H](O)CC[C@]4(C)[C@H]3CC[C@]12C [Lathosterol]	2.481	0.602	3.049	–
CCCCCCCCCCCCCCCC(=O)OCC(O)CO (stereo not shown) [1-Palmitoylglycerol]	0.3279	1.171	–	Fold change [4]: 0.6081
CCCCCCCCCCCCCCCC(=O)O[C@H](CC(=O)[O-])C[N+](C)(C)C [L-Palmitoylcarnitine]	2.52	–	–	Fold change [1]: 1.713
CCCCCCCCCCCCC/C=C/[C@@H](O)[C@H](COP(=O)([O-])OCC[N+](C)(C)C)NC(=O)CCCCCCCCCCCCCCCCC [Sphingomyelin (d18:1/18:0)]	–	–	–	Fold change (rat, in vivo): 1.142 and 1.189
CCCCCCCCCCCCCCCC(=O)OC[C@H](COP(=O)([O-])OCC[N+](C)(C)C)OC(=O)CCCCCCCCCCCCCCC [PC(16:0/16:0)]	–	–	0.7843	–
O=C(O)[C@@H]1CCCCN1 [L-Pipecolic acid]	0.7035	1.276	–	Fold change [1]: 1.162
CCCCCCCC/C=C\CCCCCCCC(=O)OC[C@@H](O)COP(=O)([O-])OCC[N+](C)(C)C [1-Oleoyl-sn-glycero-3-phosphocholine]	0.8445	–	–	–
C=C1CC[C@H](O)C/C1=C/C=C1\CCC[C@]2(C)[C@@H]([C@H](C)CCCC(C)C)CC[C@@H]12 [Cholecalciferol (Vitamin D3)]	1.921	–	–	Fold change [4]: 1.578
CCCCCCCCCCCCCCCCCC(=O)OC[C@@H](O)COP(=O)([O-])OCC[N+](C)(C)C [1-Stearoyl-sn-glycerol 3-phosphocholine]	–	–	0.2224	Fold change [3]: 0.8936
CCCCCCCCCCCCCC(=O)OC[C@@H](O)COP(=O)([O-])OCC[N+](C)(C)C [1-Myristoyl-sn-glycero-3-phosphocholine]	0.7956	0.767	1.421	Fold change [1]: 0.6202; Fold change [3]: 1.568
